# Assay results published in publication PMC6823368 (Scientific Reports, 2019).
# Like-named read-outs stand apart in the source and are kept apart here.
# Experiments:
# [1] = Safety evaluations (adverse events, clinical and laboratory examinations)
# Method: The safety assessments were conducted on account of clinical examinations, such as evaluation of general subject appearance, vital signs and routine hematology and biochemistry assays[35], together with adverse events evaluation (AEs), conducted at screening, pretreatment, post-treatment (day 7) and end of trial (day 16). […] AEs were defined as mild, moderate or severe[37]. Determination of causal relationship between AEs and study drugs followed the criterions announced by the World Health Organization[27].
# [2] = system: prothrombin time (INR); conditions: area under INR-time profile 0-[…]; 5 mg warfarin; n=12
# Method: Current study is phase I clinical trial, which was designed as open-labeled and fixed-sequence, and all the information/data were collected from a single center. […] The volunteers were hospitalized on day-1 (the day before the study), 10 hours of fasting was required before administration[27]. Subjects should avoid any activities involved in risks of haemorrhage[9].
# (§1) The measurement outcomes contained area under the profile (AUC0-t), the terminal half-life (t1/2), maximum plasma concentration observed (Cmax), time of maximum concentration (Tmax). AUC from 0 to infinity (AUC0-∞). Parameters of pharmacodynamic were estimated from the INR data on each period. PT (INR) was measured with the use of prothrombin complex assay (STA-R, SPA 50 Reagent, Diagnostica stago)[34]. Maximum INR (INRmax) and baseline INR (INRbaseline) were determined by PTtest divide PTnormal.
# (§2) Log-transformation of pharmacodynamic parameters INRmax and INR(AUC) were applied.
# [3] = system: 3A4; conditions: hepatic isoenzyme; cited from earlier work
# [4] = system: plasma protein; conditions: cited from earlier work
# [5] = design: method as in earlier work; conditions: cited from earlier work
# [6] = system: COX-2; conditions: cited from earlier work
# [7] = system: CYP2C9; conditions: hepatic isoenzyme; cited from earlier work
# [8] = system: 2D6; conditions: hepatic isoenzyme; cited from earlier work
# [9] = system: COX-1; conditions: read-out: 50% inhibitory concentration (IC50) of COX-1; cited from earlier work
# [10] = n=12; for Cmax / MRT0-∞: mean (SD); for Tmax: median (range)
# Method: The volunteers were hospitalized on day-1 (the day before the study), 10 hours of fasting was required before administration[27].
# The chromatographic separation was carried out on an LC system (Shimadzu LC-20AD, Tokyo, Japan) using water and acetonitrile, and AB QTRAP 4000 system (AB Sciex, Foster City, CA, USA) in positive electrospray ion mode was hired for quantification[29]–[31]. […] Liquid-liquid extraction with 3 mL dichloromethane: diethyl ether: (2:3, v/v) was employed for 200 μL human plasma.
# as §1, §2
# [11] = system: vitamin K-dependent coagulation factors; conditions: cited from earlier work
# [12] = warfarin 5 mg with steady-state imrecoxib
compound,measurement,setting,value
CC(=O)CC(c1ccccc1)c1c(O)c2ccccc2oc1=O (stereo not shown) [Warfarin],safety and tolerance,"[1]; healthy volunteers, across the trial",safey and good tolerance
same,transient elevated direct bilirubin,"[1]; one subject, period 1, day 7, upper limit of normal 6.8 μmol/L, grade 1 AE, considered unrelated to study drugs",9.6 µmol/L
same,INR (AUC),[2],143.47
"CCCN1CC(c2ccc(S(C)(=O)=O)cc2)=C(c2ccc(C)cc2)C1=O [Imrecoxib, 4-(4-methylsulfonyl-phenyl)-1-propyl-3-(p-tolyl)-1H-pyrrol-2(5H)-one]",adverse event,"[1]; one subject, period 2, Day 8 after first dose (200 mg), about 1.5 hours, resolved without treatment, possibly related",mild abdominal/upper abdominal discomfort
same,rate of metabolism by CYP3A4,[3],16.4%
same,protein bound in plasma,[4],96%
same,accumulation in plasma,[5]; 200 mg bid for 11 consecutive days,No accumulated effects
same,t1/2,[5],20 h
same,Tmax,[5]; following oral consumption,2 h
same,single-dose pharmacokinetics dose linearity,[5]; over the 30 to 200 mg dose range,linear
same,"selective index (IC50, COX-1/COX2)",[6]; between that of meloxicam and celecoxib,6.39
same,IC50,[6]; read-out: 50% inhibitory concentration (IC50) of COX-2,18 ± 4 nM
same,rate of metabolism by CYP2C9,[7],62.5%
same,rate of metabolism by CYP2D6,[8],21.1%
same,IC50,[9],115 ± 28 nM
CC(=O)C[C@H](c1ccccc1)c1c(O)c2ccccc2oc1=O [R-warfarin],Cmax,[10]; warfarin 5 mg alone,285.25 (39.66) μg/L
same,MRT0-∞,[10]; warfarin 5 mg alone,88.41 (19.96) hr
same,Tmax,[10]; warfarin 5 mg alone,1.0 (0.5–3.0) hr
same,Cmax,[10]; [12],300.75 (36.61) μg/L
same,MRT0-∞,[10]; [12],83.44 (13.39) hr
same,Tmax,[10]; [12],0.8 (0.5–2.0) hr
CC(=O)C[C@@H](c1ccccc1)c1c(O)c2ccccc2oc1=O [S-warfarin],share of anticoagulant activity of warfarin,[11],85%
same,Cmax,[10]; warfarin 5 mg alone,294.92 (50.35) μg/L
same,MRT0-∞,[10]; warfarin 5 mg alone,66.44 (15.76) hr
same,Tmax,[10]; warfarin 5 mg alone,1.0 (0.5–3.0) hr
same,Cmax,[10]; [12],300.42 (34.01) μg/L
same,MRT0-∞,[10]; [12],63.35 (12.78) hr
same,Tmax,[10]; [12],0.8 (0.5–2.0) hr
